According to patent US8835392B2, “Mimetic peptides and the use thereof in the form of 20S, 26S and immunoproteasome inhibitors” (Technische Universität, priority 2005, dated 2014):
“Also recorded” adds a separate entry of the source. Where a SMILES comes first, the peptide text is derived from it. The star is where a group is joined. Cbz = O=C(OCc1ccccc1)*; Boc = CC(C)(C)OC(=O)*; OtBu = CC(C)(C)O*

Columns and labels:
[1] = target: T1, 20S proteasome β2 trypsin-like activity (VGR-MCA) (Homo sapiens, UniProt P49720+Q99436); experiment: Protease assay, trypsin-like activity of isolated 20S proteasomes; assay type: biochemical; settings: isolated 20S proteasome; VGR-MCA 50 μM; 15 min pre-incubation; read-out: IC50 β2 Trypsin-like (R)
T1 construct: Proteasomes were isolated from red blood cells; from tissue; host or cells: red blood cells
Protocol: (§1) Proteasomes were isolated from red blood cells. Cells were lysed with DTT (1 mM), and the stroma-free supernatant was loaded on DEAE-sepharose (Toyopearls). Proteasome was eluted with an NaCl-gradient in TEAD (20 mM TrisCl pH 7.4, 1 mM EDTA, 1 mM azide, 1 mM DTT) of 100 to 300 mM NaCl. Proteasome was concentrated using ammonium sulfate-precipitation (between 40 and 70% saturation) and was separated in a 10-40% sucrose-gradient through centrifugation at 40.000 rpm for 16 hours (SW40; L7, Beckman & Coulter). Finally, the proteasomes were purified on a MonoQ-column and eluted with an NaCl-gradient at about 280 mM NaCl. The fractions containing purified proteasome were dialysed against 50 mM NaCl in TEAD and stored on ice. The purity was determined using SDS-PAGE.
(§2) Suc-LLVY-AMC, Z-VGR-AMC and LLE-AMC (BACHEM, Calbiochem) was used, in order to determine the chymotrypsin-like, trypsin-like or caspase-like (post-acidic)-activities of the proteasome. Substrate was incubated with proteasome at 37° C. in assay-buffer (20 mM Tris/Cl, pH 7.2, 1 mM EDTA, 1 mM DTT) for one hour. 100 ng proteasome was pre-incubated with 0.01-10 μM of the inhibitor for […]. The reaction was started by the addition of substrate (50 μM). The AMC as released was detected using fluorescence emission at 460 nm (excitation at 390 nm) using a TECAN-fluorimeter. The activity was calculated in fluorescence-units. The inhibition is depicted by IC50-values.
(§3) The effects thereof were compared with the one of the commonly used proteasomal inhibitor 3 (MG132). The chymotrypsin-like (Suc-LLVY-AMC), the trypsin-like (Bz-VGR-AMC), and the caspase-like (Z-LLE-AMC)-activities of 20S proteasomes were determined following incubation for one hour at 37° C.
(§4) The IC50-values form the inhibition of the proteasome were calculated at increasing concentrations of the inhibitor. The samples were pre-incubated for 15 min in ice. The assay was started through the addition of 50 μM of one of the following fluorogenic peptide substrates:
(§5) The release of MCA was determined at 460 nm emission (excitation 390 nm). The IC50-values as calculated for MG132 served as controls.

[2] = target: T2, 20S proteasome β1 caspase-like activity (LLE-MCA) (Homo sapiens, UniProt P28072+Q99436); experiment: Protease assay, caspase-like activity of isolated 20S proteasomes; assay type: biochemical; settings: isolated 20S proteasome; LLE-MCA 50 μM; 15 min pre-incubation; read-out: IC50 β1 Caspase-like (E)
T2 construct: Proteasomes were isolated from red blood cells; from tissue; host or cells: red blood cells
Protocol: as §1, §2, §3, §4, §5

[3] = tested on: Human melanoma cells (MeWo); experiment: Viability of human melanoma cells (MeWo), crystal violet-staining; assay type: cell-based; settings: Homo sapiens, 72 h, read-out: concentration at rate of survival of 50% of the cells
Protocol: (§6) A, Human melanoma cells (MeWo) were treated with increasing concentrations of the compounds 15 or 3 (MG132) for 72 hours. The viability of the cells after the treatment with compound 15 (-♦-) and with MG132 (-□-) was detected by a crystal-violet-staining. B and C, MeWo cells were co-cultivated with the compounds 15 and 3 (MG132) for 24 hours. The cells were subsequently fixed in 70% ethanol, and treated with RNAse A. The DNA was stained with propidium iodide (5 μg/ml), and analysed by means of FACS (FACS Calibur flow cytometer; Beckton Dickinson). The statistical significance was detected by the chi-square-test. The relative distribution of the cells that were present in the G1-(black), in the S-(white) or in the G2 phase (hatched) of the cellular cycle is shown for both compounds as examined (15 in B and MG132 in C).
Human melanoma cells (MeWo) were incubated for 72 h with different concentrations of the inhibitor 15 and 28, and the viability of the cells was determined by means of crystal violet-staining (FIG. 8).

Fibroblasts = experiment: Viability of fibroblasts (control); assay type: cell-based; settings: Fibroblast, identical conditions (72 h), read-out: concentration for 50% reduction of the viability
[4] = tested on: Human melanoma cells (MeWo); experiment: Cell cycle arrest in MeWo cells, propidium iodide FACS; assay type: cell-based; settings: 24 hours
Protocol: as §6
Human melanoma cells (MeWo) were with the compounds 15 and 3 (MG132) for 24 hours co-cultivated. The cells were washed with PBS, in 70% ethanol fixed and subsequently treated with RNAse A. The DNA was stained with propidium iodide (5 μg/ml) and analysed by means of flow-cytometry (FACS Calibur flow cytometer; Beckton Dickinson). The relative dispersion of the cells that were present in different phases of the cell cycle, could thus be detected. […] The statistical significance was detected by the Chi-square test.

[5] = target: T3, 20S proteasome β5 chymotrypsin-like activity (GLL-MCA) (Homo sapiens, UniProt P20618+P28074); experiment: Protease assay, chymotrypsin-like activity of isolated 20S proteasomes (GLL substrate); assay type: biochemical; settings: isolated 20S proteasome; GLL-MCA 50 μM; 15 min pre-incubation; read-out: IC50 β5 Chym.-like (L)
T3 construct: Proteasomes were isolated from red blood cells; from tissue; host or cells: red blood cells
Protocol: as §1, §2, §4, §5

20S proteasome = tested on: T4, 20S proteasome; experiment: Inhibition of the different proteasomal activities, summary statements; assay type: biochemical; settings: isolated proteasomes, specific substrates
T4 construct: Proteasomes were isolated from red blood cells; from tissue; host or cells: red blood cells
Protocol: The specific inhibition of a single catalytic site is of specific interest for the development of drugs. Thus, the inhibition of the different proteasomal activities of the proteasome was analysed (see also example 6). The different cleavage-preferences of the proteasome were determined by the specific substrate for the hydrophobic (chymotrypsin-like), the trypsine-like and the caspase-like activities of isolated proteasomes.
as §2, §3

[6] = target: T5, proteasomal activity in HeLa-cells (Homo sapiens, UniProt P20618+P28074); experiment: Intracellular inhibition of proteasomes in cultivated HeLa-cells; assay type: cell-based
T5 construct: endogenous in cells; host or cells: HeLa
Protocol: A, HeLa-cells were cultivated were 24 hours in the presence of the inhibitor. The protein concentration was determined in accordance with the cellular lysis according to Bradford in order to normalise the proteasomal activities to the different amounts of cells. Subsequently Complete (Roche) was added to all lysates, and the proteasomal activity was determined through the hydrolysis of Suc-LLVY-AMC. B, HeLa-cells was incubated with 1 μM of compound 15 for 2, 4, 6 and 24 hours. Cells were lysed, and proteins were separated through SDS-PAGE on a 10% gel, blotted to a PVDF-membrane. The accumulation of the poly-ubiquitinylated proteins was detected in a Western blot by an anti-ubiquitine-antibody (DAKO). C, HeLa-Cells were treated with increasing concentrations of the inhibitor 15, 25, 26, 27, and 28 for 24 hours (lane 1: without inhibitor; lane 2: 10 nM; lane 3: 100 nM and lane 4: 1 μM of the given inhibitor). Cells were lysed, proteins were separated on 15% gels, and the accumulation of the poly-ubiquitinylated proteins was controlled through Western blot.
HeLa-Cells were cultivated in RPMI, supplemented with 10% FCS and penicillin/streptomycin, at 5% CO2. Inhibitors were administered from 100×-stock solutions (in DMSO) at the final concentrations as indicated, and incubated with the cells for at least 20 hours.
Cultivated cells (HeLa) were harvested lysed and with 0.1% NP40 in TEAD in the presence of the commercially available protease-inhibitor-mixture Complete (Roche). The proteasomal activity was measured in 10 μl of the lysate using Suc-LLVY-AMC as a substrate. The protein content was quantified by means of Bradford (Protein assay; BioRad).
An application on cell cultures or animals requires that the concentrations of the inhibitors are chose as low as required. The specific proteasomal activity was reduced to a value of below 50% in cells that were treated with 1 μM of the compounds 15, 22, 25, 26, or 28, respectively (FIG. 6A).

[7] = target: T6, 20S proteasome β5 chymotrypsin-like activity (Suc-LLVY-AMC) (Homo sapiens, UniProt P20618+P28074); experiment: Protease assay, chymotrypsin-like activity of isolated 20S proteasomes (LLVY substrate); assay type: biochemical; settings: isolated 20S proteasome; LLVY-MCA 50 μM; 15 min pre-incubation; read-out: IC50 β5 Chymotrypsin-like (Y)
T6 construct: Proteasomes were isolated from red blood cells; from tissue; host or cells: red blood cells
Protocol: as §1, §2
The chymotrypsin-like (Suc-LLVY-AMC), the trypsin-like (Bz-VGR-AMC), and the caspase-like (Z-LLE-AMC)-activities of 20S proteasomes were determined following incubation for one hour at 37° C.
as §4, §5

[8] = tested on: caspase 3/7 activation in HeLa-cells; experiment: Apoptosis-assay, caspase 3/7-activity (Apo-One); assay type: cell-based; settings: 1 μM, 20 hours
Protocol: HeLa-cells that were cultivated for 20 hours in the presence of the given inhibitor, were subsequently incubated for 2 hours with caspase-substrate (Apo-One; Promega). The activation of caspases 3/7 was measured at 538 nm (excitation at 485 nm). Treatment of the cells with TNFα or with MG132 served as control.
For this, 10,000 HeLa-cells pro well were seeded in a 96-well-plate, and co-cultivated for 20 hours with 1 μM of the inhibitors 7, 8, 11, 13-16, 18, 20-23 and 25-28. The induction of apoptosis was determined by measuring of the caspase 3/7-activity (Apo-One®-Assay, Promega).

IC50 [2]	IC50 [5]	reduction of the specific proteasomal activity in cells ([6]; HeLa cells, 1 μM)	IC50 [7]	membrane-permeation ([6]; cultivated cells)	stability during the incubation periods ([6]; cultivated cells)	proteasomal activity reduced to ([6]; cultivated cells, remaining activity)	SMILES	IC50 [1]	IC50 [3]	IC50 (Fibroblasts)	concentration giving arrest of the cell cycle in the G2 phase [4]	which proteasomal activities are inhibited (site selectivity) (20S proteasome)	induction of apoptosis (activation of caspase 3 and 7) [8]
0.098 µM	0.102 µM	markedly reduction	–	–	–	–	CC(C)C[C@@H](C=O)NC(=O)[C@H](CC(=O)OC(C)(C)C)NC(=O)[C@H](CC(C)C)NC(=O)OC(C)(C)C [Compound 13] (Boc-Leu-Asp(OtBu)-Leu-aldehyde)	–	–	–	–	inhibited all of the proteasomal hydrolytic activities	–
> 10 µM	> 10 µM	–	> 10 µM	–	–	–	CC(C)C[C@@H](C=O)NC(=O)[C@H](CC(=O)O)NC(=O)[C@@H](N)CC(C)C [Compound 14] (H-Leu-Asp-Leu-aldehyde)	> 10 µM	–	–	–	–	–
1.72 µM	–	–	0.441 µM	membrane-permeation	sufficient stability	10%	CC(C)C[C@H](NC(=O)OCc1ccccc1)C(=O)N[C@@H](CC(C)C)C(=O)N[C@@H](CC(C)C)C(=O)C(=O)NCc1ccccc1 [Compound 26]	–	–	–	–	inhibited the chymotryptic and the caspase-like sites	beginning apoptosis; also recorded: strong induction of apoptosis

SMILES	IC50 [2]	IC50 [5]	reduction of the specific proteasomal activity in cells ([6]; HeLa cells, 1 μM)	IC50 [7]	membrane-permeation ([6]; cultivated cells)	stability during the incubation periods ([6]; cultivated cells)	proteasomal activity reduced to ([6]; cultivated cells, remaining activity)	IC50 [1]	IC50 [3]	IC50 (Fibroblasts)	concentration giving arrest of the cell cycle in the G2 phase [4]	which proteasomal activities are inhibited (site selectivity) (20S proteasome)	induction of apoptosis (activation of caspase 3 and 7) [8]
CC(C)C[C@@H](C=O)NC(=O)[C@H](CC(C)C)NC(=O)[C@H](CC(C)C)NC(=O)OCc1ccccc1 [Compound 3, reference compound] (Cbz-Leu-Leu-Leu-aldehyde)	2.29 µM	–	–	–	–	–	–	9.22 µM	0.035 µM	0.5 to 1 µM	100 nM	–	–
